Laboratory results taken from ChEMBL document CHEMBL2034897, “Discovery and optimization of benzenesulfonanilide derivatives as a novel class of 11β-HSD1 inhibitors” (Bioorg Med Chem Lett, 2012).

Target: 11-beta-hydroxysteroid dehydrogenase 1 (Homo sapiens, UniProt P28845)
Assay: Inhibition of human 11beta-HSD1 using [3H]cortisone as substrate assessed as production of [3H]-cortisol by scintillation proximity assay

11-beta-hydroxysteroid dehydrogenase 1, sequence (P28845 whole entry): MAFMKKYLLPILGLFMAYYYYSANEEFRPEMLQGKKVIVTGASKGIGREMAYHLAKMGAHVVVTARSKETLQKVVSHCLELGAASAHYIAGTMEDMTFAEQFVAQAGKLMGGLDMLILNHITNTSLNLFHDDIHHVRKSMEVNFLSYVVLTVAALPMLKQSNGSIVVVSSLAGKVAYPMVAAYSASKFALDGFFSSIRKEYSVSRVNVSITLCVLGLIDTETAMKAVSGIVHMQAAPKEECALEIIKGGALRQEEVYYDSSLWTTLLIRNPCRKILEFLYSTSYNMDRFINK

| IC50 [nM] | SMILES |
| --- | --- |
| > 1000 | CC(O)(c1ccc(NS(=O)(=O)c2ccccc2)cc1)C(F)(F)F (racemic) |
| > 1000 | CN(c1ccc(C(C)(O)C(F)(F)F)cc1)S(=O)(=O)c1ccccc1 (racemic) |
